Results as given in ChEMBL document CHEMBL4325840, “Design, synthesis and evaluation of novel hybrids between 4-anilinoquinazolines and substituted triazoles as potent cytotoxic agents” (Bioorg Med Chem Lett, 2018).
pIC50: −log10 of the molar value.

system: SK-LU-1; assay: Potency index, ratio of erlotinib hydrochloride IC50 to compound IC50 for human SK-LU-1 cells; type: functional; conditions: not given

Row | Compound | Ratio IC50
1 | O=[N+]([O-])c1ccc(-n2cc(-c3cccc(Nc4ncnc5ccccc45)c3)nn2)cc1 | <=100
2 | N#Cc1cc(-n2cc(-c3cccc(Nc4ncnc5cc6c(cc45)OCO6)c3)nn2)ccc1C(F)(F)F | <=100
3 | C#Cc1cccc(Nc2ncnc3ccccc23)c1 | <=100
4 | N#Cc1cc(-n2cc(-c3cccc(Nc4ncnc5ccccc45)c3)nn2)ccc1C(F)(F)F | <=100
5 | O=[N+]([O-])c1ccccc1-n1cc(-c2cccc(Nc3ncnc4cc5c(cc34)OCCO5)c2)nn1 | <=100
6 | N#Cc1cc(-n2cc(-c3cccc(Nc4ncnc5cc6c(cc45)OCCCO6)c3)nn2)ccc1C(F)(F)F | <=100
7 | O=[N+]([O-])c1ccccc1-n1cc(-c2cccc(Nc3ncnc4cc5c(cc34)OCCCO5)c2)nn1 | <=100
8 | O=[N+]([O-])c1cccc(-n2cc(-c3cccc(Nc4ncnc5cc6c(cc45)OCCO6)c3)nn2)c1 | <=100
9 | C#Cc1cccc(Nc2ncnc3cc4c(cc23)OCCO4)c1 | <=100
10 | O=[N+]([O-])c1ccccc1-n1cc(-c2cccc(Nc3ncnc4ccccc34)c2)nn1 | <=100
11 | N#Cc1cc(-n2cc(-c3cccc(Nc4ncnc5cc6c(cc45)OCCO6)c3)nn2)ccc1C(F)(F)F | <=100

system: KB; assay: Cytotoxicity against human KB cells after 3 days by MTT assay; type: functional, cell-based; conditions: Homo sapiens, KB, 72 h

Row | Compound | pIC50
12 | O=[N+]([O-])c1ccc(-n2cc(-c3cccc(Nc4ncnc5ccccc45)c3)nn2)cc1 | 5.26
13 | N#Cc1cc(-n2cc(-c3cccc(Nc4ncnc5cc6c(cc45)OCO6)c3)nn2)ccc1C(F)(F)F | 5.34
14 | C#Cc1cccc(Nc2ncnc3ccccc23)c1 | 5.26
15 | N#Cc1cc(-n2cc(-c3cccc(Nc4ncnc5ccccc45)c3)nn2)ccc1C(F)(F)F | 5.84
16 | O=[N+]([O-])c1ccccc1-n1cc(-c2cccc(Nc3ncnc4cc5c(cc34)OCCO5)c2)nn1 | 7.40
17 | N#Cc1cc(-n2cc(-c3cccc(Nc4ncnc5cc6c(cc45)OCCCO6)c3)nn2)ccc1C(F)(F)F | 5.83
18 | O=[N+]([O-])c1ccccc1-n1cc(-c2cccc(Nc3ncnc4cc5c(cc34)OCCCO5)c2)nn1 | 4.69
19 | O=[N+]([O-])c1cccc(-n2cc(-c3cccc(Nc4ncnc5cc6c(cc45)OCCO6)c3)nn2)c1 | 5.45
20 | C#Cc1cccc(Nc2ncnc3cc4c(cc23)OCCO4)c1 | 5.59
21 | O=[N+]([O-])c1ccccc1-n1cc(-c2cccc(Nc3ncnc4ccccc34)c2)nn1 | 5.26
22 | N#Cc1cc(-n2cc(-c3cccc(Nc4ncnc5cc6c(cc45)OCCO6)c3)nn2)ccc1C(F)(F)F | 6.57

system: KB; assay: Potency index, ratio of erlotinib hydrochloride IC50 to compound IC50 for human KB cells; type: functional; conditions: not given

Row | Compound | Ratio IC50
23 | O=[N+]([O-])c1ccc(-n2cc(-c3cccc(Nc4ncnc5ccccc45)c3)nn2)cc1 | <=100
24 | N#Cc1cc(-n2cc(-c3cccc(Nc4ncnc5cc6c(cc45)OCO6)c3)nn2)ccc1C(F)(F)F | <=100
25 | C#Cc1cccc(Nc2ncnc3ccccc23)c1 | <=100
26 | N#Cc1cc(-n2cc(-c3cccc(Nc4ncnc5ccccc45)c3)nn2)ccc1C(F)(F)F | <=100
27 | O=[N+]([O-])c1ccccc1-n1cc(-c2cccc(Nc3ncnc4cc5c(cc34)OCCO5)c2)nn1 | <=100
28 | N#Cc1cc(-n2cc(-c3cccc(Nc4ncnc5cc6c(cc45)OCCCO6)c3)nn2)ccc1C(F)(F)F | <=100
29 | O=[N+]([O-])c1ccccc1-n1cc(-c2cccc(Nc3ncnc4cc5c(cc34)OCCCO5)c2)nn1 | <=100
30 | O=[N+]([O-])c1cccc(-n2cc(-c3cccc(Nc4ncnc5cc6c(cc45)OCCO6)c3)nn2)c1 | <=100
31 | C#Cc1cccc(Nc2ncnc3cc4c(cc23)OCCO4)c1 | <=100
32 | O=[N+]([O-])c1ccccc1-n1cc(-c2cccc(Nc3ncnc4ccccc34)c2)nn1 | <=100
33 | N#Cc1cc(-n2cc(-c3cccc(Nc4ncnc5cc6c(cc45)OCCO6)c3)nn2)ccc1C(F)(F)F | <=100

system: HepG2; assay: Potency index, ratio of erlotinib hydrochloride IC50 to compound IC50 for human HepG2 cells; type: functional; conditions: not given

Row | Compound | Ratio IC50
34 | O=[N+]([O-])c1ccc(-n2cc(-c3cccc(Nc4ncnc5ccccc45)c3)nn2)cc1 | <=100
35 | N#Cc1cc(-n2cc(-c3cccc(Nc4ncnc5cc6c(cc45)OCO6)c3)nn2)ccc1C(F)(F)F | <=100
36 | C#Cc1cccc(Nc2ncnc3ccccc23)c1 | <=100
37 | N#Cc1cc(-n2cc(-c3cccc(Nc4ncnc5ccccc45)c3)nn2)ccc1C(F)(F)F | <=100
38 | O=[N+]([O-])c1ccccc1-n1cc(-c2cccc(Nc3ncnc4cc5c(cc34)OCCO5)c2)nn1 | <=100
39 | N#Cc1cc(-n2cc(-c3cccc(Nc4ncnc5cc6c(cc45)OCCCO6)c3)nn2)ccc1C(F)(F)F | <=100
40 | O=[N+]([O-])c1ccccc1-n1cc(-c2cccc(Nc3ncnc4cc5c(cc34)OCCCO5)c2)nn1 | <=100
41 | O=[N+]([O-])c1cccc(-n2cc(-c3cccc(Nc4ncnc5cc6c(cc45)OCCO6)c3)nn2)c1 | <=100
42 | C#Cc1cccc(Nc2ncnc3cc4c(cc23)OCCO4)c1 | <=100
43 | O=[N+]([O-])c1ccccc1-n1cc(-c2cccc(Nc3ncnc4ccccc34)c2)nn1 | <=100
44 | N#Cc1cc(-n2cc(-c3cccc(Nc4ncnc5cc6c(cc45)OCCO6)c3)nn2)ccc1C(F)(F)F | <=100

system: KB; assay: Potency index, ratio of erlotinib IC50 to compound IC50 for human KB cells; type: functional; conditions: not given

Row | Compound | Ratio IC50
45 | O=[N+]([O-])c1ccc(-n2cc(-c3cccc(Nc4ncnc5ccccc45)c3)nn2)cc1 | <=100
46 | N#Cc1cc(-n2cc(-c3cccc(Nc4ncnc5cc6c(cc45)OCO6)c3)nn2)ccc1C(F)(F)F | <=100
47 | C#Cc1cccc(Nc2ncnc3ccccc23)c1 | <=100
48 | N#Cc1cc(-n2cc(-c3cccc(Nc4ncnc5ccccc45)c3)nn2)ccc1C(F)(F)F | <=100
49 | O=[N+]([O-])c1ccccc1-n1cc(-c2cccc(Nc3ncnc4cc5c(cc34)OCCO5)c2)nn1 | <=100
50 | N#Cc1cc(-n2cc(-c3cccc(Nc4ncnc5cc6c(cc45)OCCCO6)c3)nn2)ccc1C(F)(F)F | <=100
51 | O=[N+]([O-])c1ccccc1-n1cc(-c2cccc(Nc3ncnc4cc5c(cc34)OCCCO5)c2)nn1 | <=100
52 | O=[N+]([O-])c1cccc(-n2cc(-c3cccc(Nc4ncnc5cc6c(cc45)OCCO6)c3)nn2)c1 | <=100
53 | C#Cc1cccc(Nc2ncnc3cc4c(cc23)OCCO4)c1 | <=100
54 | O=[N+]([O-])c1ccccc1-n1cc(-c2cccc(Nc3ncnc4ccccc34)c2)nn1 | <=100
55 | N#Cc1cc(-n2cc(-c3cccc(Nc4ncnc5cc6c(cc45)OCCO6)c3)nn2)ccc1C(F)(F)F | <=100

system: SK-LU-1; assay: Potency index, ratio of erlotinib IC50 to compound IC50 for human SK-LU-1 cells; type: functional; conditions: not given

Row | Compound | Ratio IC50
56 | O=[N+]([O-])c1ccc(-n2cc(-c3cccc(Nc4ncnc5ccccc45)c3)nn2)cc1 | <=100
57 | N#Cc1cc(-n2cc(-c3cccc(Nc4ncnc5cc6c(cc45)OCO6)c3)nn2)ccc1C(F)(F)F | <=100
58 | C#Cc1cccc(Nc2ncnc3ccccc23)c1 | <=100
59 | N#Cc1cc(-n2cc(-c3cccc(Nc4ncnc5ccccc45)c3)nn2)ccc1C(F)(F)F | <=100
60 | O=[N+]([O-])c1ccccc1-n1cc(-c2cccc(Nc3ncnc4cc5c(cc34)OCCO5)c2)nn1 | <=100
61 | N#Cc1cc(-n2cc(-c3cccc(Nc4ncnc5cc6c(cc45)OCCCO6)c3)nn2)ccc1C(F)(F)F | <=100
62 | O=[N+]([O-])c1ccccc1-n1cc(-c2cccc(Nc3ncnc4cc5c(cc34)OCCCO5)c2)nn1 | <=100
63 | O=[N+]([O-])c1cccc(-n2cc(-c3cccc(Nc4ncnc5cc6c(cc45)OCCO6)c3)nn2)c1 | <=100
64 | C#Cc1cccc(Nc2ncnc3cc4c(cc23)OCCO4)c1 | <=100
65 | O=[N+]([O-])c1ccccc1-n1cc(-c2cccc(Nc3ncnc4ccccc34)c2)nn1 | <=100
66 | N#Cc1cc(-n2cc(-c3cccc(Nc4ncnc5cc6c(cc45)OCCO6)c3)nn2)ccc1C(F)(F)F | <=100

system: SK-LU-1; assay: Cytotoxicity against human SK-LU-1 cells after 3 days by MTT assay; type: functional, cell-based; conditions: Homo sapiens, SK-LU-1, 72 h

Row | Compound | pIC50
67 | O=[N+]([O-])c1ccc(-n2cc(-c3cccc(Nc4ncnc5ccccc45)c3)nn2)cc1 | 5.04
68 | N#Cc1cc(-n2cc(-c3cccc(Nc4ncnc5cc6c(cc45)OCO6)c3)nn2)ccc1C(F)(F)F | 4.56
69 | C#Cc1cccc(Nc2ncnc3ccccc23)c1 | 5.38
70 | N#Cc1cc(-n2cc(-c3cccc(Nc4ncnc5ccccc45)c3)nn2)ccc1C(F)(F)F | 5.35
71 | O=[N+]([O-])c1ccccc1-n1cc(-c2cccc(Nc3ncnc4cc5c(cc34)OCCO5)c2)nn1 | 5.99
72 | N#Cc1cc(-n2cc(-c3cccc(Nc4ncnc5cc6c(cc45)OCCCO6)c3)nn2)ccc1C(F)(F)F | 5.74
73 | O=[N+]([O-])c1ccccc1-n1cc(-c2cccc(Nc3ncnc4cc5c(cc34)OCCCO5)c2)nn1 | 4.83
74 | O=[N+]([O-])c1cccc(-n2cc(-c3cccc(Nc4ncnc5cc6c(cc45)OCCO6)c3)nn2)c1 | 5.25
75 | C#Cc1cccc(Nc2ncnc3cc4c(cc23)OCCO4)c1 | 5.47
76 | O=[N+]([O-])c1ccccc1-n1cc(-c2cccc(Nc3ncnc4ccccc34)c2)nn1 | 5.32
77 | N#Cc1cc(-n2cc(-c3cccc(Nc4ncnc5cc6c(cc45)OCCO6)c3)nn2)ccc1C(F)(F)F | 5.35

system: HepG2; assay: Potency index, ratio of erlotinib IC50 to compound IC50 for human HepG2 cells; type: functional; conditions: not given

Row | Compound | Ratio IC50
78 | O=[N+]([O-])c1ccc(-n2cc(-c3cccc(Nc4ncnc5ccccc45)c3)nn2)cc1 | <=100
79 | N#Cc1cc(-n2cc(-c3cccc(Nc4ncnc5cc6c(cc45)OCO6)c3)nn2)ccc1C(F)(F)F | <=100
80 | C#Cc1cccc(Nc2ncnc3ccccc23)c1 | <=100
81 | N#Cc1cc(-n2cc(-c3cccc(Nc4ncnc5ccccc45)c3)nn2)ccc1C(F)(F)F | <=100
82 | O=[N+]([O-])c1ccccc1-n1cc(-c2cccc(Nc3ncnc4cc5c(cc34)OCCO5)c2)nn1 | <=100
83 | N#Cc1cc(-n2cc(-c3cccc(Nc4ncnc5cc6c(cc45)OCCCO6)c3)nn2)ccc1C(F)(F)F | <=100
84 | O=[N+]([O-])c1ccccc1-n1cc(-c2cccc(Nc3ncnc4cc5c(cc34)OCCCO5)c2)nn1 | <=100
85 | O=[N+]([O-])c1cccc(-n2cc(-c3cccc(Nc4ncnc5cc6c(cc45)OCCO6)c3)nn2)c1 | <=100
86 | C#Cc1cccc(Nc2ncnc3cc4c(cc23)OCCO4)c1 | <=100
87 | O=[N+]([O-])c1ccccc1-n1cc(-c2cccc(Nc3ncnc4ccccc34)c2)nn1 | <=100
88 | N#Cc1cc(-n2cc(-c3cccc(Nc4ncnc5cc6c(cc45)OCCO6)c3)nn2)ccc1C(F)(F)F | <=100

system: HepG2; assay: Cytotoxicity against human HepG2 cells after 3 days by MTT assay; type: functional, cell-based; conditions: Homo sapiens, HepG2, 72 h

Row | Compound | pIC50
89 | O=[N+]([O-])c1ccc(-n2cc(-c3cccc(Nc4ncnc5ccccc45)c3)nn2)cc1 | 5.09
90 | N#Cc1cc(-n2cc(-c3cccc(Nc4ncnc5cc6c(cc45)OCO6)c3)nn2)ccc1C(F)(F)F | 5.21
91 | C#Cc1cccc(Nc2ncnc3ccccc23)c1 | 5.38
92 | N#Cc1cc(-n2cc(-c3cccc(Nc4ncnc5ccccc45)c3)nn2)ccc1C(F)(F)F | 5.73
93 | O=[N+]([O-])c1ccccc1-n1cc(-c2cccc(Nc3ncnc4cc5c(cc34)OCCO5)c2)nn1 | 6.85
94 | N#Cc1cc(-n2cc(-c3cccc(Nc4ncnc5cc6c(cc45)OCCCO6)c3)nn2)ccc1C(F)(F)F | 5.79
95 | O=[N+]([O-])c1ccccc1-n1cc(-c2cccc(Nc3ncnc4cc5c(cc34)OCCCO5)c2)nn1 | 4.36
96 | O=[N+]([O-])c1cccc(-n2cc(-c3cccc(Nc4ncnc5cc6c(cc45)OCCO6)c3)nn2)c1 | 6.06
97 | C#Cc1cccc(Nc2ncnc3cc4c(cc23)OCCO4)c1 | 5.55
98 | O=[N+]([O-])c1ccccc1-n1cc(-c2cccc(Nc3ncnc4ccccc34)c2)nn1 | 5.33
99 | N#Cc1cc(-n2cc(-c3cccc(Nc4ncnc5cc6c(cc45)OCCO6)c3)nn2)ccc1C(F)(F)F | 5.22
